Measured values from US8372871B2, “Histidinol dehydrogenase inhibitors, and use thereof as medicaments” (priority 2008, dated 2013).
pIC50: −log10 of the molar value.

target: B. suis histidinol dehydrogenase (Brucella suis biovar 1, UniProt Q8G2R2); test: biochemical; format: biochemical; details: not given
Sequence (Q8G2R2 whole entry, looked up): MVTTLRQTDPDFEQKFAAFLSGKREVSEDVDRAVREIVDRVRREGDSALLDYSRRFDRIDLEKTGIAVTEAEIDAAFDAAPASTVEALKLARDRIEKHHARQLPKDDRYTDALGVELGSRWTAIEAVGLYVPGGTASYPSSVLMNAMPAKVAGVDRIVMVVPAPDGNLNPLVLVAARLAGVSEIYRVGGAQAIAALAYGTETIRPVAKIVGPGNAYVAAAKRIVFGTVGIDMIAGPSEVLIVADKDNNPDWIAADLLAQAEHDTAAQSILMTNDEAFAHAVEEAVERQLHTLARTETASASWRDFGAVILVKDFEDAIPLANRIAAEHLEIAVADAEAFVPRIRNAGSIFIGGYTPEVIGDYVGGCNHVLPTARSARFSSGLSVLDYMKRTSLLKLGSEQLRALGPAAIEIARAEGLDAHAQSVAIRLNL

SMILES | pIC50
Cc1ccc(-c2ccc(CC(=O)[C@@H](N)Cc3c[nH]cn3)cc2)cc1 [Compound 2a, (3S)-3-amino-4-(1H-imidazol-4-yl)-1-(4′-methylbiphenyl-4-yl)butan-2-one dihydrochlorhydrate] | 7.52
CCCCc1ccc(-c2ccc(CC(=O)[C@@H](N)Cc3c[nH]cn3)cc2)cc1 [Compound 2b, (3S)-3-amino-1-(4′-butylbiphenyl-4-yl)-4-(1H-imidazol-4-yl) butan-2-one dihydrochlorhydrate] | 7.40
N[C@@H](Cc1c[nH]cn1)C(=O)Cc1ccc(CCc2ccccc2)cc1 [Compound 2i, (3S)-3-amino-4-(1H-imidazol-4-yl)-1-[4-(2-phenylethyl)phenyl] butan-2-one dihydrochlorhydrate] | 7.89
N[C@@H](Cc1c[nH]cn1)C(=O)Cc1ccc(/C=C/c2ccccc2)cc1 [Compound 2j, (3S)-3-amino-4-(1H-imidazol-4-yl)-1-{4-[(E)-2-phenylvinyl]phenyl}butan-2-one dihydrochlorhydrate] | 7.60
N[C@@H](Cc1c[nH]cn1)C(=O)Cc1ccc(/C=C/c2ccc(C(F)(F)F)cc2)cc1 [Compound 2l, (3S)-3-amino-4-(1H-imidazol-4-yl)-1-(4-{(E)-2-[4-(trifluoromethyl)phenyl]vinyl}phenyl) butan-2-one dihydrochlorhydrate] | 7.19
N[C@@H](Cc1c[nH]cn1)C(=O)Cc1ccc(/C=C/Cc2ccccc2)cc1 [Compound 2m, (3S)-3-amino-4-(1H-imidazol-4-yl)-1-{4-[(1E)-3-phenylprop-1-en-1-yl]phenyl}butan-2-one dihydrochlorhydrate] | 7.52
Cc1ccc(C#Cc2ccc(CC(=O)[C@@H](N)Cc3c[nH]cn3)cc2)cc1 [Compound 3b, (3S)-3-amino-4-(1H-imidazol-4-yl)-1-{4-[(4-methylphenyl)ethynyl]phenyl}butan-2-one dihydrochlorhydrate] | 7.40

tested on: not given; test: not given; details: not given

SMILES | melting point
N[C@@H](Cc1c[nH]cn1)C(=O)Cc1ccc(-c2ccc(Br)cc2)cc1 (hydrate or solvate) | 199 °C (dec.)
N[C@@H](Cc1c[nH]cn1)C(=O)Cc1ccc(-c2ccc(-c3ccccc3)cc2)cc1 (hydrate or solvate) | 200 °C (dec.)
N[C@@H](Cc1c[nH]cn1)C(=O)Cc1ccc(/C=C/c2ccc(-c3ccccc3)cc2)cc1 (hydrate or solvate) | 200 °C (dec.)
N[C@@H](Cc1c[nH]cn1)C(=O)Cc1ccc(C#Cc2ccc(-c3ccccc3)cc2)cc1 (hydrate or solvate) | 196 °C (dec.)
Cc1ccc(-c2ccc(CC(=O)[C@@H](N)Cc3c[nH]cn3)cc2)cc1 (hydrate or solvate) [Compound 2a, (3S)-3-amino-4-(1H-imidazol-4-yl)-1-(4′-methylbiphenyl-4-yl)butan-2-one dihydrochlorhydrate] | 203 °C (dec.)
CCCCc1ccc(-c2ccc(CC(=O)[C@@H](N)Cc3c[nH]cn3)cc2)cc1 (hydrate or solvate) [Compound 2b, (3S)-3-amino-1-(4′-butylbiphenyl-4-yl)-4-(1H-imidazol-4-yl) butan-2-one dihydrochlorhydrate] | 155 °C (dec.)
COc1ccc(-c2ccc(CC(=O)[C@@H](N)Cc3c[nH]cn3)cc2)cc1 (hydrate or solvate) [Compound 2c, (3S)-3-amino-4-(1H-imidazol-4-yl)-1-(4′-methoxybiphenyl-4-yl)butan-2-one dihydrochlorhydrate] | 210 °C (dec.)
N[C@@H](Cc1c[nH]cn1)C(=O)Cc1ccc(-c2ccc(C(F)(F)F)cc2)cc1 (hydrate or solvate) [Compound 2d, (3S)-3-amino-4-(1H-imidazol-4-yl)-1-[4′-(trifluoromethyl)biphenyl-4-yl]butan-2-one dihydrochlorhydrate] | 149 °C (dec.)
N[C@@H](Cc1c[nH]cn1)C(=O)Cc1ccc(-c2ccc(Oc3ccccc3)cc2)cc1 (hydrate or solvate) [Compound 2f, (3S)-3-amino-4-(1H-imidazol-4-yl)-1-(4′-phenoxybiphenyl-4-yl)butan-2-one dihydrochlorhydrate] | 198 to 200 °C
N[C@@H](Cc1c[nH]cn1)C(=O)Cc1ccc(-c2ccc3ccccc3c2)cc1 (hydrate or solvate) [Compound 2h, (3S)-3-amino-4-(1H-imidazol-4-yl)-1-[4-(2-naphthhyl)phenyl] butan-2-one dihydrochlorhydrate] | 205 °C (dec.)
N[C@@H](Cc1c[nH]cn1)C(=O)Cc1ccc(CCc2ccccc2)cc1 (hydrate or solvate) [Compound 2i, (3S)-3-amino-4-(1H-imidazol-4-yl)-1-[4-(2-phenylethyl)phenyl] butan-2-one dihydrochlorhydrate] | 168 to 170 °C
N[C@@H](Cc1c[nH]cn1)C(=O)Cc1ccc(/C=C/c2ccccc2)cc1 (hydrate or solvate) [Compound 2j, (3S)-3-amino-4-(1H-imidazol-4-yl)-1-{4-[(E)-2-phenylvinyl]phenyl}butan-2-one dihydrochlorhydrate] | 195 °C (dec.)
Cc1ccc(/C=C/c2ccc(CC(=O)[C@@H](N)Cc3c[nH]cn3)cc2)cc1 (hydrate or solvate) [Compound 2k, (3S)-3-amino-4-(1H-imidazol-4-yl)-1-{4-[(E)-2-(4-methylphenyl)vinyl]phenyl}butan-2-one dihydrochlorhydrate] | 200 °C (dec.)
N[C@@H](Cc1c[nH]cn1)C(=O)Cc1ccc(/C=C/c2ccc(C(F)(F)F)cc2)cc1 (hydrate or solvate) [Compound 2l, (3S)-3-amino-4-(1H-imidazol-4-yl)-1-(4-{(E)-2-[4-(trifluoromethyl)phenyl]vinyl}phenyl) butan-2-one dihydrochlorhydrate] | 186 °C (dec.)
N[C@@H](Cc1c[nH]cn1)C(=O)Cc1ccc(/C=C/Cc2ccccc2)cc1 (hydrate or solvate) [Compound 2m, (3S)-3-amino-4-(1H-imidazol-4-yl)-1-{4-[(1E)-3-phenylprop-1-en-1-yl]phenyl}butan-2-one dihydrochlorhydrate] | 178 to 180 °C
N[C@@H](Cc1c[nH]cn1)C(=O)Cc1ccc(C#Cc2ccccc2)cc1 (hydrate or solvate) [Compound 3a, (3S)-3-amino-4-(1H-imidazol-4-yl)-1-[4-(phenylethynyl)phenyl] butan-2-one dihydrochlorhydrate] | 194 °C (dec.)
Cc1ccc(C#Cc2ccc(CC(=O)[C@@H](N)Cc3c[nH]cn3)cc2)cc1 (hydrate or solvate) [Compound 3b, (3S)-3-amino-4-(1H-imidazol-4-yl)-1-{4-[(4-methylphenyl)ethynyl]phenyl}butan-2-one dihydrochlorhydrate] | 181 °C (dec.)
CCCCCc1ccc(C#Cc2ccc(CC(=O)[C@@H](N)Cc3c[nH]cn3)cc2)cc1 (hydrate or solvate) [Compound 3d, (3S)-3-amino-4-(1H-imidazol-4-yl)-1-{4-[(4-pentylphenyl)ethynyl]phenyl}butan-2-one dihydrochlorhydrate] | 184 °C (dec.)

tested on: B. suis; test: microbe, parasite or virus in culture; format: cell-based, Brucella suis; details: Brucella suis, 168 h, read-out: Effects on the growth of B. suis (%) (inhibition of bacterial growth)

SMILES | inhibition at 50 µM | inhibition at 100 µM
Cc1ccc(-c2ccc(CC(=O)[C@@H](N)Cc3c[nH]cn3)cc2)cc1 [Compound 2a, (3S)-3-amino-4-(1H-imidazol-4-yl)-1-(4′-methylbiphenyl-4-yl)butan-2-one dihydrochlorhydrate] | 30% | 40%
CCCCc1ccc(-c2ccc(CC(=O)[C@@H](N)Cc3c[nH]cn3)cc2)cc1 [Compound 2b, (3S)-3-amino-1-(4′-butylbiphenyl-4-yl)-4-(1H-imidazol-4-yl) butan-2-one dihydrochlorhydrate] | 50% | 60%
